Test results: PMC4018403, “Transient Receptor Potential Ankyrin 1 Receptor Activation In Vitro and In Vivo by Pro-tussive Agents: GRC 17536 as a Promising Anti-Tussive Therapeutic” (PLoS ONE, 2014)
“Also recorded” adds a separate entry of the source. Read-outs that look alike come from different tables or passages of the source. Each block holds one compound with its values, some of them ahead of it.

Tests used:
TRPA1 [1] = target: T1, TRPA1 (Homo sapiens, UniProt O75762); test: Citric acid-induced Ca+2 influx in CCD19-Lu cells; format: cell-based; design: A549 cells have been reported to express endogenous TRPA1; host or cells: A549
T1 sequence (O75762 whole entry): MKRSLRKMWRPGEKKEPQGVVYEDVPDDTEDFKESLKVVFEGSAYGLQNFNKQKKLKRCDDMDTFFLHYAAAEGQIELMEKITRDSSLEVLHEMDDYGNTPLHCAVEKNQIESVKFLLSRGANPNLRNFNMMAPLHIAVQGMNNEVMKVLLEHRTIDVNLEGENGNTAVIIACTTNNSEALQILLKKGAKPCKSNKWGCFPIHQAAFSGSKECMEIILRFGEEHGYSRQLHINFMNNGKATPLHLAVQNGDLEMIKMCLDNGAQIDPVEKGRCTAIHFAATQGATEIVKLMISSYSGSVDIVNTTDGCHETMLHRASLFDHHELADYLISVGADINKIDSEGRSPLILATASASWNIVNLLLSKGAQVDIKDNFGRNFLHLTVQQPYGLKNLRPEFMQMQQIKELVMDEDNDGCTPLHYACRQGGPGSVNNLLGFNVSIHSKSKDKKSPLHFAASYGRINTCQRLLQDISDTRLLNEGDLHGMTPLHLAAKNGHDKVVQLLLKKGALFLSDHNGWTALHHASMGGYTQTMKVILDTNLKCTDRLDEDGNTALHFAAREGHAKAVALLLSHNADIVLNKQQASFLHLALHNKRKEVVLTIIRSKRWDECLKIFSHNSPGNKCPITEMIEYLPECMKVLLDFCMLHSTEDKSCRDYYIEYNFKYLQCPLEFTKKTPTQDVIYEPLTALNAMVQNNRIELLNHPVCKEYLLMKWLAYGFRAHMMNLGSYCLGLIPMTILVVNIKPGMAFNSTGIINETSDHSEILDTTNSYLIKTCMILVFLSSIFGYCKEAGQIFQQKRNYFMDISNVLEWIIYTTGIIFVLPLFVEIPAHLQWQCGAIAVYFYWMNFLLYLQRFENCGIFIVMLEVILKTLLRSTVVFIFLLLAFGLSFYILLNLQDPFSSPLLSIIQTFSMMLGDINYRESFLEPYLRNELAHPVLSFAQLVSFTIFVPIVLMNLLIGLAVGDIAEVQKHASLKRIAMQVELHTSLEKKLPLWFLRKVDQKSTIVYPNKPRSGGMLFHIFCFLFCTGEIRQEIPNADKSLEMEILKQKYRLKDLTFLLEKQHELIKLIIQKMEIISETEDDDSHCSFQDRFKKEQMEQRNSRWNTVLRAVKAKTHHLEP
Experimental: (§1) Human lung fibroblast cells, CCD19-Lu (ATCC CCL-210) were obtained from American Type Culture Collection (ATCC; Rockville, MD, USA) and cultured in MEM supplemented with 10% FBS. Human pulmonary alveolar epithelial cell line A549 (ATCC CCL-185) was also obtained from ATCC and maintained in DMEM F-12 supplemented with 10% FBS. Both the cell types were cultured at 37°C in humidified air containing 5% CO2. Chinese hamster ovary (CHO) cells stably expressing human TRPA1 (hTRPA1/CHO), TRPV1 (hTRPV1/CHO), TRPV3 (hTRPV3/CHO), TRPV4 (hTRPV4/CHO and TRPM8 (hTRPM8/CHO were generated in-house and maintained in DMEM F-12 supplemented with 10% FBS and G418.
(§2) Fluorimetric and radiometric Ca^+2 influx assay was performed as described earlier. GRC 17536, GRC 17770, compound 7 or GRC 6211 was added to the cells 15 minutes prior to addition of agonist. Citric acid stock solution (1 M) was prepared in dH2O. Subsequent dilutions were made in Ca^+2, Mg^+2 free PBS (pH 7.3). No significant change in pH was observed upto 10 mM citric acid. At 30 mM concentration of citric acid, the pH of the solution dropped to 5.5. TLR ligands - LPS (10 µg/ml, TLR4), loxoribine (10 µM, TLR7) and ssRNA40 (1 µg/ml, TLR8) were dissolved in media and added to the cells for 16–18 hours. TRP selectivity of GRC 17536 and compound 7 was performed for TRPV1, TRPV3, TRPV4 and TRPM8 using Capsaicin (1 µM), 2-APB (1 mM), 4α-PDD (30 µM) and Icilin (250 nM) respectively, as agonist.

TRPA1 [2] = target: T1, TRPA1; test: Citric acid-induced Ca+2 influx in A549 cells; format: cell-based; design: A549 cells have been reported to express endogenous TRPA1; host or cells: A549
Experimental: as §1, §2

TRPV1 [3] = target: T2, TRPV1 (Homo sapiens, UniProt Q8NER1); test: Citric acid effect on Ca+2 influx in hTRPV1/CHO cells; format: cell-based; conditions: data not shown
T2 construct: expressed in transfected cells
T2 sequence (Q8NER1 whole entry): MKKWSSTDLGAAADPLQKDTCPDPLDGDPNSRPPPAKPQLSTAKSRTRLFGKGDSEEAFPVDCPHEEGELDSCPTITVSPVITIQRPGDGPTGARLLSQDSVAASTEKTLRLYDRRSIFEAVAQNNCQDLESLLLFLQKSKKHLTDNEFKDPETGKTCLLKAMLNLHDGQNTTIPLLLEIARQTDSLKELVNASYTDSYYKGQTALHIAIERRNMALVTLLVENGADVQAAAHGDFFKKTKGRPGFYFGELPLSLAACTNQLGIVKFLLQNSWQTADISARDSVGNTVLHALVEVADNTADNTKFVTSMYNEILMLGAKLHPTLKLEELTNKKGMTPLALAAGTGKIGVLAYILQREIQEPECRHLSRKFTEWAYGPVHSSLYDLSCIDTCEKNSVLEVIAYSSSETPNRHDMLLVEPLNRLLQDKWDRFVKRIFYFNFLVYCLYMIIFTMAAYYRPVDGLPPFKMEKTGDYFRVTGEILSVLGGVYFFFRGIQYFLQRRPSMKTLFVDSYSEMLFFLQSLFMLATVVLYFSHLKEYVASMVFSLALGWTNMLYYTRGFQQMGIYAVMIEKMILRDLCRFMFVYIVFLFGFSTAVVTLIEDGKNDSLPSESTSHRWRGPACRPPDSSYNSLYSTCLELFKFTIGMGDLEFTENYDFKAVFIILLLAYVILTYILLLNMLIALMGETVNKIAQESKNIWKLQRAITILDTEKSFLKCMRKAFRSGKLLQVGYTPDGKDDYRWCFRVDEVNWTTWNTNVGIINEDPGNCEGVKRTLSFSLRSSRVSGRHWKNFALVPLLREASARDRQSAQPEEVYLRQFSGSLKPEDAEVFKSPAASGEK
Experimental: as §1
as §2, with “TRP selectivity of GRC 17536 and compound 7 was performed for TRPV1, TRPV3, TRPV4 and TRPM8 using Capsaicin (1 µM), 2-APB (1 mM), 4α-PDD (30 µM) and Icilin (250 nM) respectively, as agonist.” left out

TRPA1 [4] = target: T1, TRPA1; test: Citric acid-induced Ca+2 influx in hTRPA1/CHO cells; format: cell-based; design: expressed in transfected cells
Experimental: as §1, §2

TRPM8 = target: T3, TRPM8 (Homo sapiens, UniProt Q7Z2W7); test: TRP selectivity, hTRPM8/CHO, Icilin as agonist; format: cell-based; conditions: agonist Icilin (250 nM)
T3 construct: expressed in transfected cells
T3 sequence (Q7Z2W7 whole entry): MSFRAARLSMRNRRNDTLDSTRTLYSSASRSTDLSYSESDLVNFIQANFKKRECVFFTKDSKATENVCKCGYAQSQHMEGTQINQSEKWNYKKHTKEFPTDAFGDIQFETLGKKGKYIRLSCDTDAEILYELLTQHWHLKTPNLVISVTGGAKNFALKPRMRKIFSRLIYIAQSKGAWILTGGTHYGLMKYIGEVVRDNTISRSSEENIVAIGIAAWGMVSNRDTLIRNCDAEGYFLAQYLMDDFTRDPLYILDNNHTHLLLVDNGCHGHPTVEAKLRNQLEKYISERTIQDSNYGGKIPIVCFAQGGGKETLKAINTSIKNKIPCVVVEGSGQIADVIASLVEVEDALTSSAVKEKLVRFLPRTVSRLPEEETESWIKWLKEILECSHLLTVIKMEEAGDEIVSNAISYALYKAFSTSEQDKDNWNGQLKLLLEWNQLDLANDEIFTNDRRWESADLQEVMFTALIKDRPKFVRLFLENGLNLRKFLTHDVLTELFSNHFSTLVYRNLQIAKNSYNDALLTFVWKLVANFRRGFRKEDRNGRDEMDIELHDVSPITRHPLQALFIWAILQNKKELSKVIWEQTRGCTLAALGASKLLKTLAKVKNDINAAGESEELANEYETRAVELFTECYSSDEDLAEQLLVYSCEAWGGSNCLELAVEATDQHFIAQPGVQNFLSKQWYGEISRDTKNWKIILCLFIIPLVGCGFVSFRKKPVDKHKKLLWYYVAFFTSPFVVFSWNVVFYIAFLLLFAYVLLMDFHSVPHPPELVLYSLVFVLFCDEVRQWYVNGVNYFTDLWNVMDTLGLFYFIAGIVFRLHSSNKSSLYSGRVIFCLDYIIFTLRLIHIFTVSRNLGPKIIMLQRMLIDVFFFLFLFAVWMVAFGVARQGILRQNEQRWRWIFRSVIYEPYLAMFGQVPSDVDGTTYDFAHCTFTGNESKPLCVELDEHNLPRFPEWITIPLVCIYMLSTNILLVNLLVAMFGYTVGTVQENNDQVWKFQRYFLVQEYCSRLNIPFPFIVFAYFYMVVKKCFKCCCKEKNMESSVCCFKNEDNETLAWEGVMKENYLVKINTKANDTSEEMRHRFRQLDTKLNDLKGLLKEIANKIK
Experimental: as §1
as §2, with “TRP selectivity of GRC 17536 and compound 7 was performed for TRPV1, TRPV3, TRPV4 and TRPM8 using Capsaicin (1 µM), 2-APB (1 mM), 4α-PDD (30 µM) and Icilin (250 nM) respectively, as agonist.” left out

TRPA1 [5] = target: T1, TRPA1; test: TLR ligand-enhanced 45Ca+2 uptake in A549 cells; format: cell-based; design: A549 cells have been reported to express endogenous TRPA1; host or cells: A549; conditions: A549
Experimental: as §1, §2

TRPV1 [6] = target: T2, TRPV1; test: TRP selectivity, hTRPV1/CHO, Capsaicin as agonist; format: cell-based; conditions: agonist Capsaicin (1 µM)
Experimental: as §1
as §2, with “TRP selectivity of GRC 17536 and compound 7 was performed for TRPV1, TRPV3, TRPV4 and TRPM8 using Capsaicin (1 µM), 2-APB (1 mM), 4α-PDD (30 µM) and Icilin (250 nM) respectively, as agonist.” left out

TRPA1 [7] = target: T1, TRPA1; test: TLR ligand-enhanced 45Ca+2 uptake in hTRPA1/CHO cells; format: cell-based; design: expressed in transfected cells; conditions: hTRPA1/CHO
Experimental: as §1, §2

TRPA1 [8] = target: T1, TRPA1; design: method as in PMID 21848366; conditions: CCD19-Lu cells; read-out: IC50 with AITC as agonist; cited from earlier work
TRPA1 [9] = target: T1, TRPA1; design: A549 cells have been reported to express endogenous TRPA1; host or cells: A549; method as in PMID 21848366; conditions: A549 cells; read-out: IC50 with AITC as agonist; cited from earlier work
[10] = Plasma concentration in the cough model; format: in vivo; conditions: at the EDmax dose (∼89% suppression of cough), guinea pig, i.p.
TRPV3 = target: T4, TRPV3 (Homo sapiens, UniProt Q8NET8); test: TRP selectivity, hTRPV3/CHO, 2-APB as agonist; format: cell-based; conditions: agonist 2-APB (1 mM)
T4 construct: expressed in transfected cells
T4 sequence (Q8NET8 1-790): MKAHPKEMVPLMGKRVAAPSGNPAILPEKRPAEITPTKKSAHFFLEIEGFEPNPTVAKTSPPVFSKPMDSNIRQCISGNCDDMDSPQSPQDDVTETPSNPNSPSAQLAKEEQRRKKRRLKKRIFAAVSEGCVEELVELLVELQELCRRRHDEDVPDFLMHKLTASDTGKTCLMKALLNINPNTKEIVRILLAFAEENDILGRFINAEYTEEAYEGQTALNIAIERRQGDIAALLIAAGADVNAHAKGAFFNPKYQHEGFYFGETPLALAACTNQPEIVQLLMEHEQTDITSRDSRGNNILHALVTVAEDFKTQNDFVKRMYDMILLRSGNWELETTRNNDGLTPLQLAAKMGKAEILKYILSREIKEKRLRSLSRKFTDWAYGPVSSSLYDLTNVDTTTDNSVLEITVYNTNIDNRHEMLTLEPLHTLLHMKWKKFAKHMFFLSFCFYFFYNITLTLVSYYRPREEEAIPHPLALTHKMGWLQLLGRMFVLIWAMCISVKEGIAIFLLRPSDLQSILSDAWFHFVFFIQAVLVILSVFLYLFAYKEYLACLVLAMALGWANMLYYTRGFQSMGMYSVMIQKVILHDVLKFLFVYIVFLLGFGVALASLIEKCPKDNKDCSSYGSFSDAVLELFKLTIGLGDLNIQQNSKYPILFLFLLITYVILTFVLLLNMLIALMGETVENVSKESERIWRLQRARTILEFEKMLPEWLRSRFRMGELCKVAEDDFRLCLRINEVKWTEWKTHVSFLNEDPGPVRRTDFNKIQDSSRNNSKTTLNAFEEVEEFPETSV
Experimental: as §1
as §2, with “TRP selectivity of GRC 17536 and compound 7 was performed for TRPV1, TRPV3, TRPV4 and TRPM8 using Capsaicin (1 µM), 2-APB (1 mM), 4α-PDD (30 µM) and Icilin (250 nM) respectively, as agonist.” left out

TRPV4 = target: T5, TRPV4 (Homo sapiens, UniProt Q9HBA0); test: TRP selectivity, hTRPV4/CHO, 4α-PDD as agonist; format: cell-based; conditions: agonist 4α-PDD (30 µM)
T5 construct: expressed in transfected cells
T5 sequence (Q9HBA0 whole entry): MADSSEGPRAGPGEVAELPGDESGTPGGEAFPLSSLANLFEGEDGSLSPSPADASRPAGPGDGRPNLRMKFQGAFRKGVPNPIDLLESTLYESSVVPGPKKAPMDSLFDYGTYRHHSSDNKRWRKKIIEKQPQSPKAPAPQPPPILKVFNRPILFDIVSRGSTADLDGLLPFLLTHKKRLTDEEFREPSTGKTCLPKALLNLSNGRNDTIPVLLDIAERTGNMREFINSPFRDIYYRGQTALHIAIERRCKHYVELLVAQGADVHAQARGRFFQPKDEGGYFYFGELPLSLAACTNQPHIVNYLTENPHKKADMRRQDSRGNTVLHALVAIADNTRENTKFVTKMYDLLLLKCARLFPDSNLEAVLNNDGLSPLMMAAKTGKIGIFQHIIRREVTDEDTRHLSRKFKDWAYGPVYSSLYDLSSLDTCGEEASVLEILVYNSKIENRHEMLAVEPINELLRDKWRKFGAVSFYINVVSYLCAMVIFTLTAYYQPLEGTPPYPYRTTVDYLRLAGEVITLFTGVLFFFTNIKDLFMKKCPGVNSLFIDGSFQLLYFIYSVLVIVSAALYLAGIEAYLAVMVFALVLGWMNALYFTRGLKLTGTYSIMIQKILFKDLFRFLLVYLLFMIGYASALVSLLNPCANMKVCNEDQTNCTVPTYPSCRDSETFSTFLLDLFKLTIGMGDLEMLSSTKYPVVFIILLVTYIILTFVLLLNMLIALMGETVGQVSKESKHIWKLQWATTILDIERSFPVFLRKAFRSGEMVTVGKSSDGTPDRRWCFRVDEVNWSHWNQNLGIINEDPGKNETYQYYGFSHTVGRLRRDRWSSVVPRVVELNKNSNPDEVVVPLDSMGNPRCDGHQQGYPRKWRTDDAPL
Experimental: as §1
as §2, with “TRP selectivity of GRC 17536 and compound 7 was performed for TRPV1, TRPV3, TRPV4 and TRPM8 using Capsaicin (1 µM), 2-APB (1 mM), 4α-PDD (30 µM) and Icilin (250 nM) respectively, as agonist.” left out

[11] = system: citric acid induced cough response; test: Citric acid induced conscious cough model; format: in vivo, guinea pig; conditions: 2 h before citric acid aerosol (0.4 M); for Inhibition of cough compared to vehicle: coughs recorded 10 minutes
Experimental: Male Hartley guinea pigs (200–600 g, Harlan, UK) were acclimatized in cages (20–22°C, with a light/dark cycle of 12/12 hours) before beginning of the experiments and were maintained on an ad lib standard guinea pig pellet diet and water containing dietary amounts of ascorbic acid.
Cough was detected both by pressure change and by sound and recorded with a Buxco cough analyzer (Buxco, Wilmington, NC, USA) as described earlier. Guinea pigs were randomly assigned to various test groups and were treated with different doses of GRC 17536 or Dextromethorphan i.p. before tussive challenge. The Vehicle control group received only 0.5% methyl cellulose. Two hours after i.p. administration of vehicle or test compounds, animals were placed in individual whole body plethysmographs and were exposed to citric acid aerosol (0.4 M) and the incidences of cough were recorded for 10 minutes with the help of Buxco cough analyzer.
For in vitro experiments, data was analyzed using GraphPad Prism 3.0 (GraphPad Software Inc. San Diego, CA, USA). For in vivo experiment, data from the treatment groups were compared with the control group. Mean values were statistically analyzed by one-way analysis of variance (ANOVA) followed by the Dunnett's Multiple Comparisons Test to evaluate significant differences between groups.

[12] = highest concentration of inducer, one range printed for CCD19-Lu and A549 together
[13] = 10 nM, stated for both cell types
[14] = antagonist added 15 minutes prior to agonist, read-out: IC50, inhibition of citric acid induced Ca+2 influx

Inhibition of citric acid induced increase in Ca+2 (TRPA1 [1]; up to 10 µM antagonist): failed to inhibit
Inhibition of citric acid induced increase in Ca+2 (TRPA1 [2]; up to 10 µM antagonist): failed to inhibit
Structure (SMILES): O=C(Nc1cccc2cnccc12)N[C@@H]1CC2(CCC2)Oc2ccc(F)cc21 [GRC 6211]

Citric acid concentration of maximum Ca+2 influx (TRPA1 [1]): 10 mM
Induction of Ca+2 influx over basal (TRPA1 [1]; [12]): 4–20 fold
Citric acid concentration of peak Ca+2 influx (TRPA1 [4]): 3 mM
Ca+2 influx over basal (TRPA1 [4]; highest concentration of citric acid): ~40 fold
Citric acid concentration of peak Ca+2 influx (TRPA1 [2]): 3 mM
Induction of Ca+2 influx over basal (TRPA1 [2]; [12]): 4–20 fold
Structure (SMILES): O=C(O)CC(O)(CC(=O)O)C(=O)O [citric acid]
Ca+2 influx response to citric acid (TRPV1 [3]): lack of any significant response; also recorded: did not observe any increase
Citric acid concentration that elicited a drop in Ca+2 influx (TRPA1 [1]): 30 mM
Citric acid concentration that elicited a drop in Ca+2 influx (TRPA1 [4]): 10 mM
Citric acid concentration that elicited a drop in Ca+2 influx (TRPA1 [2]): 5 mM

Structure (SMILES): Cn1c(=O)c2c(CC(=O)Nc3nc(-c4ccc(F)c(C(F)(F)F)c4F)cs3)csc2n(C)c1=O [GRC 17536]
% Inhibition at 1 µM, TRPM8 (TRPM8): 8.6%
Inhibition of LPS + AITC induced 45Ca+2 uptake (TRPA1 [5]; 10 nM): 40.4%
Inhibition of Loxoribine + AITC induced 45Ca+2 uptake (TRPA1 [5]; 10 nM): 68.1%
Inhibition of ssRNA40 + AITC induced 45Ca+2 uptake (TRPA1 [5]; 10 nM): 53.2%
Inhibition of TLR ligand-enhanced 45Ca+2 uptake (summary) (TRPA1 [5]; [13]): ~50%
Inhibition of 45Ca+2 uptake at the highest concentration (summary) (TRPA1 [5]; 1 µM): Complete inhibition
Inhibition of LPS + AITC induced 45Ca+2 uptake (TRPA1 [5]; 1 µM): 95.3%
Inhibition of Loxoribine + AITC induced 45Ca+2 uptake (TRPA1 [5]; 1 µM): 97.4%
Inhibition of ssRNA40 + AITC induced 45Ca+2 uptake (TRPA1 [5]; 1 µM): 98.7%
% Inhibition at 1 µM, TRPV1 (TRPV1 [6]): 5.6%
Inhibition of LPS + AITC induced 45Ca+2 uptake (TRPA1 [7]; 10 nM): 51.3%
Inhibition of Loxoribine + AITC induced 45Ca+2 uptake (TRPA1 [7]; 10 nM): 56.6%
Inhibition of ssRNA40 + AITC induced 45Ca+2 uptake (TRPA1 [7]; 10 nM): 63.0%
Inhibition of TLR ligand-enhanced 45Ca+2 uptake (summary) (TRPA1 [7]; [13]): ~50%
Inhibition of 45Ca+2 uptake at the highest concentration (summary) (TRPA1 [7]; 1 µM): Complete inhibition
Inhibition of LPS + AITC induced 45Ca+2 uptake (TRPA1 [7]; 1 µM): 98.4%
Inhibition of Loxoribine + AITC induced 45Ca+2 uptake (TRPA1 [7]; 1 µM): 98.6%
Inhibition of ssRNA40 + AITC induced 45Ca+2 uptake (TRPA1 [7]; 1 µM): 96.1%
IC50 (TRPA1 [8]): 2.71 nM
IC50 (TRPA1 [1]; [14]): 8.2 nM
IC50 (TRPA1 [4]; [14]): 4.6 nM
IC50 (TRPA1 [2]; [14]): 5 nM
IC50 (TRPA1 [9]): 2.06 nM
Free mean plasma concentration [10]: around its in vitro IC50 value
% Inhibition at 1 µM, TRPV3 (TRPV3): 27.3%
% Inhibition at 1 µM, TRPV4 (TRPV4): 8.2%
Inhibition of cough response ([11]; 30 mg/kg i.p.): no significant protective response
Inhibition of cough compared to vehicle ([11]; 60 mg/kg i.p.): 79%
Inhibition of cough compared to vehicle ([11]; 100 mg/kg i.p.): 89%
